“And” between values parts separate entries of the source, which are not always exact repeats. Equal entries are not always repeated. Toxic doses and inconclusive results are not listed.
Test system: P388 leukemia ip, CD2F1 mice, survival T/C
Experiment: NCI In Vivo Anticancer Drug Screen. Data for tumor model P388 Leukemia (intraperitoneal) in CD2F1 (CDF1) mice
Settings: endpoint: median survival time, higher = longer survival
Outline: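 Mice carrying the transplanted tumor received test compound or vehicle. Survival was recorded in each group, and the value is the treated-group measurement divided by that of the vehicle-treated control group.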

[1] = dose: 50.0 mg/kg/injection, schedule: Q01DX009 (ip), vehicle: Klucel (hydroxypropylcellulose) (HPC)
[2] = dose: 100.0 mg/kg/injection, schedule: Q01DX009 (ip), vehicle: Klucel (hydroxypropylcellulose) (HPC)
[3] = dose: 200.0 mg/kg/injection, schedule: Q01DX009 (ip), vehicle: Klucel (hydroxypropylcellulose) (HPC)
[4] = dose: 60.0 mg/kg/injection, schedule: Q01DX005 (ip), vehicle: saline with Tween-80
[5] = dose: 120.0 mg/kg/injection, schedule: Q01DX005 (ip), vehicle: saline with Tween-80
[6] = dose: 240.0 mg/kg/injection, schedule: Q01DX005 (ip), vehicle: saline with Tween-80
[7] = dose: 50.0 mg/kg/injection, schedule: Q01DX009 (ip), vehicle: saline
[8] = dose: 100.0 mg/kg/injection, schedule: Q01DX009 (ip), vehicle: saline
[9] = dose: 25.0 mg/kg/injection, schedule: Q01DX009 (ip), vehicle: saline
[10] = dose: 12.5 mg/kg/injection, schedule: Q01DX009 (ip), vehicle: distilled water + Tween-80
[11] = dose: 25.0 mg/kg/injection, schedule: Q01DX009 (ip), vehicle: distilled water + Tween-80
[12] = dose: 50.0 mg/kg/injection, schedule: Q01DX009 (ip), vehicle: distilled water + Tween-80
[13] = dose: 100.0 mg/kg/injection, schedule: Q01DX009 (ip), vehicle: distilled water + Tween-80

## Nc1nc2ncc(CN(C(=O)CCl)c3ccc(C(=O)NC(CCC(=O)O)C(=O)O)cc3)nc2c(=O)[nH]1 (stereo not given)
[1]
  T/C: 95 % of control
[2]
  T/C: 107 % of control
[3]
  T/C: 108 % of control

## CS(=O)CCC1C(=O)OC(C(C)(C)C)N1C(=O)c1ccccc1 (stereo not given)
[4]
  T/C: 101 % of control
[5]
  T/C: 100 % of control
[6]
  T/C: 105 % of control

## COc1c(C(C)C)cc2c(c1OC)C13CCCC(C)(C)C1C(OC3=O)C2NC(=O)CN1CCN(CCO)CC1 (stereo not given)
dose: 25.0 mg/kg/injection, schedule: Q01DX009 (ip), vehicle: Klucel (hydroxypropylcellulose) (HPC)
  T/C: 106 % of control
[1]
  T/C: 97 % of control
[2]
  T/C: 88 % of control

## CCOCCNc1ncnc2c1cnn2C
dose: 12.5 mg/kg/injection, schedule: Q04DX003 (ip), vehicle: saline
  T/C: 91 % of control
dose: 25.0 mg/kg/injection, schedule: Q04DX003 (ip), vehicle: saline
  T/C: 88 % of control
dose: 50.0 mg/kg/injection, schedule: Q04DX003 (ip), vehicle: saline
  T/C: 93 % of control
dose: 100.0 mg/kg/injection, schedule: Q04DX003 (ip), vehicle: saline
  T/C: 95 % of control

## Cc1cc(C)n(/C(N)=N/[N+](=O)[O-])n1
[7]
  T/C: 96 % of control
[8]
  T/C: 105 % of control
dose: 200.0 mg/kg/injection, schedule: Q01DX009 (ip), vehicle: saline
  T/C: 86 % of control

## N#CC1C(c2ccc(Cl)cc2)C(C(N)=O)C(=O)NC1(O)c1ccccc1 (stereo not given)
dose: 100.0 mg/kg/injection, schedule: Q04DX002 (ip), vehicle: Klucel (hydroxypropylcellulose) (HPC)
  T/C: 100 % of control
dose: 200.0 mg/kg/injection, schedule: Q04DX002 (ip), vehicle: Klucel (hydroxypropylcellulose) (HPC)
  T/C: 99 % of control
dose: 400.0 mg/kg/injection, schedule: Q04DX002 (ip), vehicle: Klucel (hydroxypropylcellulose) (HPC)
  T/C: 98 % of control

## O=C(O)C12CC3CC(CC(C3)C1)C2.O=C(O)C12CC3CC(CC(C3)C1)C2.O=C(O)C12CC3CC(CC(C3)C1)C2.O=C(O)C12CC3CC(CC(C3)C1)C2.[Rh].[Rh]
dose: 12.5 mg/kg/injection, schedule: Q01DX009 (ip), vehicle: saline
  T/C: 94 % of control
[9]
  T/C: 91 % of control and 93 % of control
[7]
  T/C: 100 % of control and 88 % of control
dose: 50.0 mg/kg/injection, schedule: Q01DX009 (ip), vehicle: suspension in saline
  T/C: 101 % of control
[8]
  T/C: 91 % of control
dose: 100.0 mg/kg/injection, schedule: Q01DX009 (ip), vehicle: suspension in saline
  T/C: 120 % of control
dose: 200.0 mg/kg/injection, schedule: Q01DX009 (ip), vehicle: suspension in saline
  T/C: 108 % of control

## CCc1cc(-n2c3c(CC)c(=O)c(CC)cc-3nc3ccccc32)cc(CC)c1O
[9]
  T/C: 98 % of control
[7]
  T/C: 109 % of control
[8]
  T/C: 105 % of control

## NC(=O)CCNC(=O)OCc1ccccc1
[10]
  T/C: 105 % of control
[11]
  T/C: 103 % of control
[12]
  T/C: 103 % of control
[13]
  T/C: 104 % of control
dose: 200.0 mg/kg/injection, schedule: Q01DX009 (ip), vehicle: distilled water + Tween-80
  T/C: 100 % of control

## CCCCCCCCCCSCC(CO)NC(=O)/C=C/c1c(C)[nH]c(=O)[nH]c1=O (stereo not given)
dose: 3.13 mg/kg/injection, schedule: Q01DX009 (ip), vehicle: distilled water + Tween-80
  T/C: 104 % of control
dose: 6.25 mg/kg/injection, schedule: Q01DX009 (ip), vehicle: distilled water + Tween-80
  T/C: 112 % of control
dose: 6.25 mg/kg/injection, schedule: Q01DX009 (ip), vehicle: other
  T/C: 114 % of control and 117 % of control
[10]
  T/C: 110 % of control
dose: 12.5 mg/kg/injection, schedule: Q01DX009 (ip), vehicle: other
  T/C: 114 % of control and 115 % of control
[11]
  T/C: 99 % of control and 110 % of control
[12]
  T/C: 106 % of control and 112 % of control
dose: 50.0 mg/kg/injection, schedule: Q01DX009 (ip), vehicle: other
  T/C: 93 % of control
[13]
  T/C: 108 % of control
dose: 100.0 mg/kg/injection, schedule: Q01DX009 (ip), vehicle: other
  T/C: 155 % of control

## CCOC(=O)C(C(=O)COC)C(=O)OCC
dose: 12.5 mg/kg/injection, schedule: Q01DX009 (ip), vehicle: water
  T/C: 100 % of control
dose: 25.0 mg/kg/injection, schedule: Q01DX009 (ip), vehicle: water
  T/C: 99 % of control
dose: 50.0 mg/kg/injection, schedule: Q01DX009 (ip), vehicle: water
  T/C: 99 % of control
dose: 100.0 mg/kg/injection, schedule: Q01DX009 (ip), vehicle: water
  T/C: 98 % of control
dose: 200.0 mg/kg/injection, schedule: Q01DX009 (ip), vehicle: water
  T/C: 97 % of control

## O=C(/C=C/c1cccc([N+](=O)[O-])c1)Nc1cccc(S(=O)(=O)F)c1
[4]
  T/C: 102 % of control
[5]
  T/C: 93 % of control
[6]
  T/C: 91 % of control

## N#CSC/C(=N\Nc1ccc([N+](=O)[O-])cc1[N+](=O)[O-])c1ccccc1
dose: 50.0 mg/kg/injection, schedule: Q04DX003 (ip), vehicle: saline with Tween-80
  T/C: 100 % of control
dose: 100.0 mg/kg/injection, schedule: Q04DX003 (ip), vehicle: saline with Tween-80
  T/C: 95 % of control
dose: 200.0 mg/kg/injection, schedule: Q04DX003 (ip), vehicle: saline with Tween-80
  T/C: 113 % of control

## COc1cc2c(cc1OC)C(c1ccccc1)ON(C)CC2 (stereo not given)
dose: 50.0 mg/kg/injection, schedule: Q01DX005 (ip), vehicle: Klucel (hydroxypropylcellulose) (HPC)
  T/C: 100 % of control
dose: 100.0 mg/kg/injection, schedule: Q01DX005 (ip), vehicle: Klucel (hydroxypropylcellulose) (HPC)
  T/C: 99 % of control
dose: 200.0 mg/kg/injection, schedule: Q01DX005 (ip), vehicle: Klucel (hydroxypropylcellulose) (HPC)
  T/C: 104 % of control

## ClCCN(CCCCCCN(CCCl)c1ccccc1)c1ccccc1
[1]
  T/C: 109 % of control
[2]
  T/C: 109 % of control
[3]
  T/C: 108 % of control

## CNC(=O)OCCC(OC(=O)NC)C1CCC2C3CCC4CC(OC(=O)c5ccccc5)CCC4(C)C3CCC12C (stereo not given)
dose: 60.0 mg/kg/injection, schedule: Q01DX005 (ip), vehicle: Klucel (hydroxypropylcellulose) (HPC)
  T/C: 107 % of control
dose: 120.0 mg/kg/injection, schedule: Q01DX005 (ip), vehicle: Klucel (hydroxypropylcellulose) (HPC)
  T/C: 98 % of control
dose: 240.0 mg/kg/injection, schedule: Q01DX005 (ip), vehicle: Klucel (hydroxypropylcellulose) (HPC)
  T/C: 93 % of control

## Nc1[nH]c(=S)[nH]c(=S)c1N
dose: 100.0 mg/kg/injection, schedule: Q04DX002 (ip), vehicle: saline with Tween-80
  T/C: 102 % of control
dose: 200.0 mg/kg/injection, schedule: Q04DX002 (ip), vehicle: saline with Tween-80
  T/C: 98 % of control
dose: 400.0 mg/kg/injection, schedule: Q04DX002 (ip), vehicle: saline with Tween-80
  T/C: 94 % of control

## CCCCN(CCCC)CCCNc1c2c(nc3ccccc13)CCCC2
dose: 12.5 mg/kg/injection, schedule: Q01DX005 (ip), vehicle: saline
  T/C: 95 % of control
dose: 25.0 mg/kg/injection, schedule: Q01DX005 (ip), vehicle: saline
  T/C: 104 % of control
dose: 50.0 mg/kg/injection, schedule: Q01DX005 (ip), vehicle: saline
  T/C: 100 % of control

## ClC1=CC(Cl)=C2N=C(N3CCCC3)N=C3N=C(C(Cl)(Cl)Cl)N=C1N32
dose: 60.0 mg/kg/injection, schedule: Q01DX005 (ip), vehicle: Klucel + Tween-80
  T/C: 96 % of control
dose: 120.0 mg/kg/injection, schedule: Q01DX005 (ip), vehicle: Klucel + Tween-80
  T/C: 96 % of control
dose: 240.0 mg/kg/injection, schedule: Q01DX005 (ip), vehicle: Klucel + Tween-80
  T/C: 87 % of control

## O=C1CN(/N=C/c2ccc(-c3ccc(F)cc3)o2)C(=O)N1
dose: 50.0 mg/kg/injection, schedule: Q01DX001 (ip), vehicle: saline with Tween-80
  T/C: 103 % of control
dose: 100.0 mg/kg/injection, schedule: Q01DX001 (ip), vehicle: saline with Tween-80
  T/C: 100 % of control
dose: 200.0 mg/kg/injection, schedule: Q01DX001 (ip), vehicle: saline with Tween-80
  T/C: 100 % of control
dose: 400.0 mg/kg/injection, schedule: Q01DX001 (ip), vehicle: saline with Tween-80
  T/C: 100 % of control

## O=C1CCCc2c1ccc1ccccc21
dose: 50.0 mg/kg/injection, schedule: Q01DX005 (ip), vehicle: saline with Tween-80
  T/C: 100 % of control
dose: 100.0 mg/kg/injection, schedule: Q01DX005 (ip), vehicle: saline with Tween-80
  T/C: 101 % of control
dose: 200.0 mg/kg/injection, schedule: Q01DX005 (ip), vehicle: saline with Tween-80
  T/C: 98 % of control

— PubChem BioAssay AID330 (DTP/NCI, 2004)
